Results on 13 molecules are retold here after US20260070927A1, “INDAZOLE MACROCYCLES FOR THE TREATMENT OF AUTOIMMUNE DISEASE” (Hoffmann-La Roche Inc., priority 2022, published 2026).

For series [1], the target named is human stimulator of interferon genes (STING) (139-379) (Homo sapiens (Human), UniProt Q86WV6). The series can be described thus: Microliter plate-based TR-FRET competition-binding assay for binders of STING. The note with it: Alexa488 probe, read-out: FRET_IC50. As for the experimental part: This is the competition-binding assay to test the compounds' potency to the C-terminal Domain (CTD) and ligand-binding domain of human stimulator of interferon genes (STING). STING (139-379, Q86WV6, http://www.uniprot.org/uniprot) recombinant protein (in 20 mM Tris, 150 mM NaCl, pH 8.0, and expression in Escherichia coli (E. coli) BL21 (DE3)) with a C-terminal flag-tag was employed for the assay. When Alexa-488 labeled active site probe (refer to patent WO2017/175156 A1) bounds to STING (139-379), it accepts the 485 nm emission from Tb-M2-Flag-STING and results in an increase in fluorescence at 520 nm. Compounds that compete for the probe-binding site will reduce 520 nm signal. The assay was run in proxiplate-384 plus (PerkinElmer, cat: 60150300) containing of 2.5 nM STING, 2.5 nM M2-Tb (Cisbio, 61FG2TLA, Lot: 17 A) and 250 nM Alexa488 probe. Plates were centrifuged for 1 min at 1000 rpm, incubated for 30 min at room temperature, and then measured the dual fluorescence emission at 520 nm/485 nM following 320 nm laser excitation on an Envision plate reader (Perkin-Elmer). The compounds' effect on the STING binding is detected by measuring ratiometric fluorescence from time-resolved FRET. The percentage of inhibition of at each compound concentration is calculated on the basis of their changes of TR-FRET efficiency relative to the change of TR-FRET caused by positive control 2′3′cGAMP (Sigma, cat: SML1229).

The subject of another series is STING (IFN-β in hPBMC). The series can be described thus: hPBMC cytokine functional assay (IFN-β decrease after Baculovirus stimulation). The format is cell-based. Conditions: Homo sapiens, Baculovirus MOI 40, 24 hours, read-out: hPBMC_IC50. As for the experimental part: The inhibition of STING by compounds could be measured by the decrease of IFN-β in hPBMC, which is stimulated by a double stranded DNA virus Baculoviurs (Purchased from Genescript, pCMV-Dest Vector virus generation P2 BV stock virus, Sf-900 II medium with 5% FBS, Lot C9835DK230-2/P4DL001). Frozen hPBMC cells (purchased from Stemcell Technologies, cat number is 70025, Lot 191070803C) were thawed at 37° C. water bath, then cells were re-suspended in 50 ml tube using 20 ml Cell culture medium, and then centrifuged for 5 min at 2000 rpm before the supernatant was removed carefully. The cells were re-suspended in culture medium (RPMI-1640 with 1.5 g/L NaHCO3, 4.5 g/L glucose, 10 mM HEPES and 1 mM Na-pyruvate, 10% HI-FBS); 65 μL of the cell suspension was dispensed into 384 well plate (70K cells/well) by Multidrop Combi with at least 3 hours incubation at 37° C., 5% CO2 cell incubator.
Then 4 μL of compound solution per well (final 0.5% DMSO) was transferred by Agilent Bravo followed by infection with 11 μL of Baculovirus at a final MOI of 40. The level of IFN-β secreted in the supernatant of hPBMC was determined after 24 hours of incubation at 37° C. cell incubator by human IFN-β HTRF assay (Cisbio, cat: 62HIFNBPEH) following the manufacture's instruction. CellTiter-Glo kit (Promega, cat: G7573) was applied for the cell viability evaluation using Envision.

Series [2] in a line: Metabolic (liver microsomal) stability assay. The note with it: human liver microsomes, 1 μM test compound. (Liver microsomes are vesicles of endoplasmic reticulum, rich in cytochrome P450 enzymes.)
Description: The liver microsomal stability assay is used for early assessment of metabolic stability of a test compound in liver microsomes.
Liver microsomes were preincubated with test compound for 10 minutes at 37° C. in 100 mM potassium phosphate buffer, pH 7.4. The reactions were initiated by adding NADPH regenerating system. The final incubation mixtures contained 1 μM test compound, 0.5 mg/mL liver microsomal protein, 1 mM MgCl2, 1 mM NADP, 1 unit/mL isocitric dehydrogenase and 6 mM isocitric acid in 100 mM potassium phosphate buffer, pH 7.4. After incubation times of 0, 3, 6, 9, 15 and 30 minutes at 37° C., 300 μL of cold acetonitrile (including internal standard) was added to 100 μL incubation mixture to terminate the reaction. Following precipitation and centrifugation, the amount of compound remaining in the samples were determined by LC-MS/MS. Controls of no NADPH regenerating system at zero and 30 minutes were also prepared and analyzed.

human stimulator of interferon genes (STING) (139-379), sequence (Q86WV6 139-379): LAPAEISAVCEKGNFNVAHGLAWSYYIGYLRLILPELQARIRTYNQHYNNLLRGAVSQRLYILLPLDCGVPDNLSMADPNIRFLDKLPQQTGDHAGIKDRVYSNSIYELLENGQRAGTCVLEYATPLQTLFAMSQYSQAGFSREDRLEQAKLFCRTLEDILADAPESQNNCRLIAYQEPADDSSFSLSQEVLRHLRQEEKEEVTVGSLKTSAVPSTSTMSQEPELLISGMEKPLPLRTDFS

Turning to `Cn1nc2cccc3c2c1CCCN(CC1CC1)C(=O)[C@@H]1C[C@@H](CN1c1ncnc2c1cnn2-c1ccc(F)cc1F)Oc1cc-3ncn1` [Example 18, (8S,11S)-13-(cyclopropylmethyl)-10-[1-(2,4-difluorophenyl)pyrazolo[3,4-d]pyrimidin-4-yl]-18-methyl-7-oxa-3,5,10,13,18,19-hexazapentacyclo[15.6.1.1^2,6.1^8,11.0^20,24]hexacosa-1(23),2(26),3,5,17(24),19,21-heptaen-12-one], the figures for the IC50 (in series [1]; in the series with STING (IFN-β in hPBMC)) were 12.5 nM and 491 nM, respectively. In series [2], the “Clearance of human microsome” value is 12.4 mL/min/kg.
As for `Cn1nc2cccc3c2c1CCCN(CCCO)C(=O)[C@@H]1C[C@@H](CN1c1ncnc2c1cnn2-c1ccc(F)cc1F)Nc1cccc-3n1` [Example 42, (8S,11S)-10-[1-(2,4-difluorophenyl)pyrazolo[3,4-d]pyrimidin-4-yl]-13-(3-hydroxypropyl)-18-methyl-7,10,13,18,19,26-hexazapentacyclo[15.6.1.1^2,6.1^8,11.0^20,24]hexacosa-1(23),2(26),3,5,17(24),19,21-heptaen-12-one], the IC50 in series [1] came to 5.3 nM. Also, in series [2], the “Clearance of human microsome” value is reported as 13.3 mL/min/kg.
On to `Cn1nc2c(F)ccc3c2c1CCCN(CCCN1CCOCC1)C(=O)[C@@H]1C[C@@H](CN1c1ncnc2c1cnn2-c1ccc(F)cc1F)Nc1cccc-3n1` [Example 44, (8S,11S)-10-[1-(2,4-difluorophenyl)pyrazolo[3,4-d]pyrimidin-4-yl]-21-fluoro-18-methyl-13-(3-morpholinopropyl)-7,10,13,18,19,26-hexazapentacyclo[15.6.1.1^2,6.1^8,11.0^20,24]hexacosa-1(23),2(26),3,5,17(24),19,21-heptaen-12-one], for which the IC50 came to 6.3 nM in series [1] and 321 nM with STING (IFN-β in hPBMC). Besides, in series [2], the “Clearance of human microsome” value came out at 15.8 mL/min/kg.
On to `COc1cc(F)ccc1-n1ncc2c(N3C[C@@H]4C[C@H]3C(=O)N(CCCN3CCOCC3)CCCc3c5c(cccc5nn3C)-c3cc(C)cc(n3)N4)ncnc21` [Example 46, (8S,11S)-10-[1-(4-fluoro-2-methoxy-phenyl)pyrazolo[3,4-d]pyrimidin-4-yl]-4,18-dimethyl-13-(3-morpholinopropyl)-7,10,13,18,19,26-hexazapentacyclo[15.6.1.1^2,6.1^8,11.0^20,24]hexacosa-1(23),2(26),3,5,17(24),19,21-heptaen-12-one], for which the IC50 in series [1] came to 7.6 nM. Further, in series [2], the “Clearance of human microsome” value is on record as 14.9 mL/min/kg.
Turning to `C=CCN1CCCc2c3c(cccc3nn2C)-c2cccc(c2)O[C@H]2C[C@@H](C1=O)N(c1ncnc3c1cnn3-c1ccc(F)cc1F)C2` [Example 20, (8S,11S)-13-allyl-10-[1-(2,4-difluorophenyl)pyrazolo[3,4-d]pyrimidin-4-yl]-18-methyl-7-oxa-10,13,18,19-tetrazapentacyclo[15.6.1.1^2,6.1^8,11.0^20,24]hexacosa-1(23),2(26),3,5,17(24),19,21-heptaen-12-one], the results for the IC50 (in series [1]; with STING (IFN-β in hPBMC)) were 1.9 nM and 346 nM, respectively.
With `CN1CCCc2c3c(cccc3nn2C)-c2ccnc(n2)N[C@H]2C[C@@H](C1=O)N(c1nccn3c(-c4ccc(F)cc4F)ncc13)C2` [Example 5, (8S,11S)-10-[3-(2,4-difluorophenyl)imidazo[1,5-a]pyrazin-8-yl]-13,18-dimethyl-5,7,10,13,18,19,26-heptazapentacyclo[15.6.1.1^2,6.1^8,11.0^20,24]hexacosa-1(23),2,4,6(26),17(24),19,21-heptaen-12-one], the figures for the IC50 (in series [1]; in the series with STING (IFN-β in hPBMC)) were 3.8 nM and 308 nM, respectively.
For `Cn1nc2cccc3c2c1CCCN(CCCc1ccccc1)C(=O)[C@@H]1C[C@@H](CN1c1ncnc2c1cnn2-c1ccc(F)cc1F)Oc1cccc-3c1` [Example 29, (8S,11S)-10-[1-(2,4-difluorophenyl)pyrazolo[3,4-d]pyrimidin-4-yl]-18-methyl-13-(3-phenylpropyl)-7-oxa-10,13,18,19-tetrazapentacyclo[15.6.1.1^2,6.1^8,11.0^20,24]hexacosa-1(23),2(26),3,5,17(24),19,21-heptaen-12-one] the same measures were 1.2 nM and 31 nM.
For `Cn1nc2cccc3c2c1CCCNC(=O)[C@@H]1C[C@@H](CN1c1ncnc2c1cnn2-c1ccc(F)cc1F)Oc1cccc-3c1` [Example 1, (8S,11S)-10-[1-(2,4-difluorophenyl)pyrazolo[3,4-d]pyrimidin-4-yl]-18-methyl-7-oxa-10,13,18,19-tetrazapentacyclo[15.6.1.1^2,6.1^8,11.0^20,24]hexacosa-1(23),2(26),3,5,17(24),19,21-heptaen-12-one] the same measures were 0.8 nM and 486 nM.
For `COc1cc2nc(c1)-c1cccc3nn(C)c(c13)CCCN(C)C(=O)[C@@H]1C[C@@H](CN1c1ncnc3c1cnn3-c1ccc(F)cc1OC)N2` [Example 14, (8S,11S)-10-[1-(4-fluoro-2-methoxy-phenyl)pyrazolo[3,4-d]pyrimidin-4-yl]-4-methoxy-13,18-dimethyl-7,10,13,18,19,26-hexazapentacyclo[15.6.1.1^2,6.1^8,11.0^20,24]hexacosa-1(23),2,4,6(26),17(24),19,21-heptaen-12-one], the IC50 came to 4.8 nM in series [1] and 255 nM in the series with STING (IFN-β in hPBMC).
For `COCCN1CCCc2c3c(cccc3nn2C)-c2cccc(c2)O[C@H]2C[C@@H](C1=O)N(c1ncnc3c1cnn3-c1ccc(F)cc1F)C2` [Example 21, (8S,11S)-10-[1-(2,4-difluorophenyl)pyrazolo[3,4-d]pyrimidin-4-yl]-13-(2-methoxyethyl)-18-methyl-7-oxa-10,13,18,19-tetrazapentacyclo[15.6.1.1^2,6.1^8,11.0^20,24]hexacosa-1(23),2(26),3,5,17(24),19,21-heptaen-12-one] the same measures were 2 nM and 380 nM.
With `Cn1nc2cccc3c2c1CCCN(CCCN1CCOCC1)C(=O)[C@@H]1C[C@@H](CN1c1ncnc2c1cnn2-c1ccc(F)cc1F)Oc1cccc-3c1` [Example 30, (8S,11S)-10-[1-(2,4-difluorophenyl)pyrazolo[3,4-d]pyrimidin-4-yl]-18-methyl-13-(3-morpholinopropyl)-7-oxa-10,13,18,19-tetrazapentacyclo[15.6.1.1^2,6.1^8,11.0^20,24]hexacosa-1(23),2(26),3,5,17(24),19,21-heptaen-12-one], the IC50 worked out at 2 nM in series [1] and 173 nM in the series on STING (IFN-β in hPBMC).
For `Cn1nc2cccc3c2c1CCCN(CCCN1CCN(S(C)(=O)=O)CC1)C(=O)[C@@H]1C[C@@H](CN1c1ncnc2c1cnn2-c1ccc(F)cc1F)Oc1cccc-3c1` [Example 35, (8S,11S)-10-[1-(2,4-difluorophenyl)pyrazolo[3,4-d]pyrimidin-4-yl]-18-methyl-13-[3-(4-methylsulfonylpiperazin-1-yl)propyl]-7-oxa-10,13,18,19-tetrazapentacyclo[15.6.1.1^2,6.1^8,11.0^20,24]hexacosa-1(23),2(26),3,5,17(24),19,21-heptaen-12-one] the same measures were 0.2 nM and 183 nM.
For `Cn1nc2cccc3c2c1CCCN(CCN1CCOCC1)C(=O)[C@@H]1C[C@@H](CN1c1ncnc2c1cnn2-c1ccc(F)cc1F)Oc1cccc-3c1` [Example 23, (8S,11S)-10-[1-(2,4-difluorophenyl)pyrazolo[3,4-d]pyrimidin-4-yl]-18-methyl-13-(2-morpholinoethyl)-7-oxa-10,13,18,19-tetrazapentacyclo[15.6.1.1^2,6.1^8,11.0^20,24]hexacosa-1(23),2(26),3,5,17(24),19,21-heptaen-12-one] the same measures were 1.6 nM and 279 nM.
